The values below come from ChEMBL document CHEMBL2040772, “Tri-substituted acylhydrazines as tertiary amide bioisosteres: HCV NS5B polymerase inhibitors” (Bioorg Med Chem Lett, 2012).

Bounds are passed on as bounds.

Data set [1] can be described thus: Cytotoxicity against human HuH7 cells after 3 days by measuring conversion of nonfluorescent calcein-AM into fluorescent calcein. The class given is cell-based, Huh-7.
Data set [2] has as its system Hepatitis C virus. Nature of the data set: Antiviral activity against HCV1b infected in human Huh-7 cells after 3 days by renilla luciferase activity based replicon assay. The data set is classed as functional, organism-based, Hepacivirus hominis. To be noted: genotype 1b, Huh-7, 72 h. (In antiviral work, replicon cells carry a viral genome segment that copies itself.)

A short description of data set [3]: Lipophilicity, log D of the compound. To be noted: octanol/water. The class given is physicochemical.
Data set [4] relates to Hepatitis C virus. Nature of the data set: Inhibition of HCV1b NS5B delta21 polymerase assessed as incorporation of nucleotides into sshRNA template using [33P]-CTP after 15 mins by scintillation counting. Set-up: species or system Hepatitis C virus subtype 1b. To be noted: 0.25 h.
For data set [5], the system named is Hepatitis C virus. Nature of the data set: Antiviral activity against HCV1a infected in human Huh-7 cells after 3 days by renilla luciferase activity based replicon assay. The class given is functional, organism-based, Hepacivirus hominis. To be noted: subtype 1a, Huh-7, 72 h.
The nature of data set [6]: Selectivity index, ratio of CC50 for human HuH7 cells to EC50 for HCV1b infected in human Huh-7 cells.
The subject of data set [7] is Hepatitis C virus. Nature of the data set: Binding affinity to HCV1b C-terminally truncated NS5B Cdelta21 RNA dependent RNA polymerase expressed in Escherichia coli by surface plasmon resonance assay. Further details: species or system Hepatitis C virus subtype 1b. Background: In SPR one partner is held on a chip, and binding of the other changes the refractive index at the surface.

`CC(C)N(c1cc(C#CC(C)(C)C)sc1C(=O)O)C(=O)[C@H]1CC[C@H](C)CC1`: the 50% cytotoxic concentration (CC50) (as a rule, the concentration giving 50% cytotoxicity) at 72 h in data set [1] was greater than 44000 nM. Besides, the EC50 (commonly the concentration needed to bring the measured effect to its halfway point) in data set [2] stood at 26 nM; in data set [5], 90 nM. In addition, the pH-dependent lipophilicity (logD) (in general, lipophilicity at a set pH, counting ionised and neutral species) in data set [3] came to 2. Also, the 50% inhibitory concentration (IC50) – broadly, the point on the concentration scale where inhibition reaches its midpoint – in data set [4] is 86 nM.
With `CN(C)N(c1cc(C#CC(C)(C)C)sc1C(=O)O)C(=O)[C@H]1CC[C@H](C)CC1`, the “Ratio CC50/EC50” value in data set [6] is on record as greater than 400. The CC50 at 72 h in data set [1] is greater than 44000 nM. For the same compound, the EC50 in data set [2] came to 89 nM; in data set [5], 478 nM. Further, the logD in data set [3] stood at 2.1. In addition, the IC50 in data set [4] is 88 nM.
For the compound `CN(CCO)N(c1cc(C#CC(C)(C)C)sc1C(=O)O)C(=O)[C@H]1CC[C@H](C)CC1`, in data set [1], the 50% cytotoxic concentration (CC50) at 72 h is greater than 44000 nM. This compound yielded an EC50 in data set [2] of 32 nM. Besides, in data set [4], the IC50 was 52 nM. In data set [7], binding was characterised by a dissociation constant (Kd) of 10 nM.
The corresponding values for `CN([C@H]1CC[C@H](O)CC1)N(c1cc(C#CC(C)(C)C)sc1C(=O)O)C(=O)[C@H]1CC[C@H](C)CC1` are greater than 44000 nM, 34 nM, 307 nM and 8 nM.
The like results for `CN(CC1CCOCC1)N(c1cc(C#CC(C)(C)C)sc1C(=O)O)C(=O)[C@H]1CC[C@H](C)CC1` were, in that order, greater than 44000 nM, 47 nM, 509 nM and 10 nM.
With `CN(C1CCNCC1)N(c1cc(C#CC(C)(C)C)sc1C(=O)O)C(=O)[C@H]1CC[C@H](C)CC1`, in data set [1], the 50% cytotoxic concentration (CC50) at 72 h is greater than 44000 nM. In data set [2], this compound gave a concentration for a half-maximal effect (EC50) of 60 nM. Also, the IC50 in data set [4] stood at 138 nM. The dissociation constant Kd (commonly the free concentration of one partner at which half of the binding sites on the other are occupied at equilibrium, for simple one-to-one binding) in data set [7] stood at 4 nM.
Take `CN1CCC(N(C)N(c2cc(C#CC(C)(C)C)sc2C(=O)O)C(=O)[C@H]2CC[C@H](C)CC2)CC1`: the CC50 at 72 h in data set [1] is greater than 44000 nM. In addition, the concentration giving a half-maximal response (EC50) was found to be 7 nM in data set [2] and 25 nM in data set [5]. In addition, the half-inhibitory concentration (IC50) in data set [4] amounted to 63 nM. Moreover, the dissociation constant Kd in data set [7] is 4 nM.
In the case of `CN(c1ccncc1)N(c1cc(C#CC(C)(C)C)sc1C(=O)O)C(=O)[C@H]1CC[C@H](C)CC1`, in data set [1], the 50% cytotoxic concentration (CC50) at 72 h was 36000 nM. Also, the 50% effective concentration (EC50) in data set [2] was found to be 3900 nM. The IC50 in data set [4] is 346 nM. For the same compound, in data set [7], the Kd came out at 30 nM.
